Assay results reported in ChEMBL document CHEMBL1147949, “Potent anti-obese principle from Rosa canina: structural requirements and mode of action of trans-tiliroside” (2007).
“And” between values parts separate entries of the source, which are not always exact repeats. Equal entries are not always repeated. The source made the active and inactive calls. The rule behind the calls is not given here.

Assays:
[1] = system: Mus musculus; experiment: Effect on liver triglyceride in ddY mouse at 10 mg/kg/day, po after 14 to 15 days; format: functional
[2] = system: Mus musculus; experiment: Effect on plasma triglyceride in ddY mouse at 10 mg/kg/day, po after 14 to 15 days; format: functional
[3] = system: Mus musculus; experiment: Effect on liver weight in ddY mouse at 10 mg/kg/day, po after 14 to 15 days; format: functional
[4] = system: Mus musculus; experiment: Reduction of visceral fat in ddY mouse at 10 mg/kg/day, po after 14 to 15 days; format: functional
[5] = system: Mus musculus; experiment: Reduction of mesenteric fat in ddY mouse at 10 mg/kg/day, po after 14 to 15 days; format: functional
[6] = system: Mus musculus; experiment: Effect on free fatty acid in ddY mouse plasma at 10 mg/kg/day, po after 14 to 15 days; format: functional
[7] = system: Mus musculus; experiment: Reduction of epididymal fat in ddY mouse at 10 mg/kg/day, po after 14 to 15 days; format: functional
[8] = system: Mus musculus; experiment: Effect on food intake in ddY mouse at 10 mg/kg/day, po after 14 to 15 days; format: functional
[9] = system: Mus musculus; experiment: Effect on D-glucose level in ddY mouse plasma at 0.1 to 10 mg/kg/day for 15 days; format: functional
[10] = system: Mus musculus; experiment: Effect on total plasma cholesterol in ddY mouse at 10 mg/kg/day, po after 14 to 15 days; format: functional
[11] = system: Mus musculus; experiment: Reduction of paranephric fat in ddY mouse at 10 mg/kg/day, po after 14 to 15 days; format: functional
[12] = system: Mus musculus; experiment: Reduction of mesenteric fat in ddY mouse at 25 mg/kg/day, po after 14 to 15 days; format: functional
[13] = system: Mus musculus; experiment: Reduction of epididymal fat in ddY mouse at 12.5 mg/kg/day, po after 14 to 15 days; format: functional
[14] = system: Mus musculus; experiment: Reduction of paranephric fat in ddY mouse at 1 mg/kg/day, po after 14 to 15 days; format: functional
[15] = system: Mus musculus; experiment: Effect on liver weight in ddY mouse at 1 mg/kg/day, po after 14 to 15 days; format: functional
[16] = system: Mus musculus; experiment: Effect on liver weight in ddY mouse at 12.5 mg/kg/day, po after 14 to 15 days; format: functional
[17] = system: Mus musculus; experiment: Effect on liver triglyceride in ddY mouse at 0.1 mg/kg/day, po after 14 to 15 days; format: functional
[18] = system: Mus musculus; experiment: Reduction of epididymal fat in ddY mouse at 25 mg/kg/day, po after 14 to 15 days; format: functional
[19] = system: Mus musculus; experiment: Effect on total plasma cholesterol in ddY mouse at 1 mg/kg/day, po after 14 to 15 days; format: functional
[20] = system: Mus musculus; experiment: Reduction of paranephric fat in ddY mouse at 25 mg/kg/day, po after 14 to 15 days; format: functional
[21] = system: Mus musculus; experiment: Reduction of paranephric fat in ddY mouse at 0.1 mg/kg/day, po after 14 to 15 days; format: functional
[22] = system: Mus musculus; experiment: Reduction of visceral fat in ddY mouse at 25 mg/kg/day, po after 14 to 15 days; format: functional
[23] = system: Mus musculus; experiment: Effect on free fatty acid in ddY mouse plasma at 0.1 mg/kg/day, po after 14 to 15 days; format: functional
[24] = system: Mus musculus; experiment: Effect on food intake in ddY mouse at 0.1 mg/kg/day, po after 14 to 15 days; format: functional
[25] = system: Mus musculus; experiment: Reduction of visceral fat in ddY mouse at 12.5 mg/kg/day, po after 14 to 15 days; format: functional
[26] = system: Mus musculus; experiment: Effect on food intake in ddY mouse at 50 mg/kg/day, po after 14 to 15 days; format: functional
[27] = system: Mus musculus; experiment: Reduction of paranephric fat in ddY mouse at 50 mg/kg/day, po after 14 to 15 days; format: functional
[28] = system: Mus musculus; experiment: Reduction of epididymal fat in ddY mouse at 1 mg/kg/day, po after 14 to 15 days; format: functional
[29] = system: Mus musculus; experiment: Effect on food intake in ddY mouse at 1 mg/kg/day, po after 14 to 15 days; format: functional
[30] = system: Mus musculus; experiment: Effect on liver triglyceride in ddY mouse at 12.5 mg/kg/day, po after 14 to 15 days; format: functional
[31] = system: Mus musculus; experiment: Reduction of epididymal fat in ddY mouse at 0.1 mg/kg/day, po after 14 to 15 days; format: functional
[32] = system: Mus musculus; experiment: Effect on liver weight in ddY mouse at 25 mg/kg/day, po after 14 to 15 days; format: functional
[33] = system: Mus musculus; experiment: Effect on free fatty acid in ddY mouse plasma at 12.5 mg/kg/day, po after 14 to 15 days; format: functional
[34] = system: Mus musculus; experiment: Effect on plasma triglyceride in ddY mouse at 50 mg/kg/day, po after 14 to 15 days; format: functional
[35] = system: Mus musculus; experiment: Effect on plasma triglyceride in ddY mouse at 1 mg/kg/day, po after 14 to 15 days; format: functional
[36] = system: Mus musculus; experiment: Effect on free fatty acid in ddY mouse plasma at 1 mg/kg/day, po after 14 to 15 days; format: functional
[37] = system: Mus musculus; experiment: Reduction of epididymal fat in ddY mouse at 50 mg/kg/day, po after 14 to 15 days; format: functional
[38] = system: Mus musculus; experiment: Effect on liver triglyceride in ddY mouse at 1 mg/kg/day, po after 14 to 15 days; format: functional
[39] = system: Mus musculus; experiment: Reduction of visceral fat in ddY mouse at 1 mg/kg/day, po after 14 to 15 days; format: functional
[40] = system: Mus musculus; experiment: Effect on plasma triglyceride in ddY mouse at 0.1 mg/kg/day, po after 14 to 15 days; format: functional
[41] = system: Mus musculus; experiment: Reduction of visceral fat in ddY mouse at 50 mg/kg/day, po after 14 to 15 days; format: functional
[42] = system: Mus musculus; experiment: Effect on total plasma cholesterol in ddY mouse at 0.1 mg/kg/day, po after 14 to 15 days; format: functional
[43] = system: Mus musculus; experiment: Effect on free fatty acid in ddY mouse plasma at 50 mg/kg/day, po after 14 to 15 days; format: functional
[44] = system: Mus musculus; experiment: Reduction of mesenteric fat in ddY mouse at 1 mg/kg/day, po after 14 to 15 days; format: functional
[45] = system: Mus musculus; experiment: Effect on total plasma cholesterol in ddY mouse at 50 mg/kg/day, po after 14 to 15 days; format: functional
[46] = system: Mus musculus; experiment: Reduction of mesenteric fat in ddY mouse at 50 mg/kg/day, po after 14 to 15 days; format: functional
[47] = system: Mus musculus; experiment: Reduction of visceral fat in ddY mouse at 0.1 mg/kg/day, po after 14 to 15 days; format: functional
[48] = system: Mus musculus; experiment: Effect on plasma triglyceride in ddY mouse at 12.5 mg/kg/day, po after 14 to 15 days; format: functional
[49] = system: Mus musculus; experiment: Effect on liver weight in ddY mouse at 50 mg/kg/day, po after 14 to 15 days; format: functional
[50] = system: Mus musculus; experiment: Reduction of mesenteric fat in ddY mouse at mg/kg/day, po after 14 to 15 days; format: functional
[51] = system: Mus musculus; experiment: Effect on total plasma cholesterol in ddY mouse at 12.5 mg/kg/day, po after 14 to 15 days; format: functional
[52] = system: Liver; experiment: Increase in expression of PPAR alpha mRNA level in liver tissue of orally dosed ddY mouse, after 24 hrs; format: functional, organism-based
[53] = system: Mus musculus; experiment: Effect on liver weight in ddY mouse at 0.1 mg/kg/day, po after 14 to 15 days; format: functional
[54] = system: Mus musculus; experiment: Effect on food intake in ddY mouse at 12.5 mg/kg/day, po after 14 to 15 days; format: functional
[55] = system: Mus musculus; experiment: Effect on liver triglyceride in ddY mouse at 50 mg/kg/day, po after 14 to 15 days; format: functional
[56] = system: Mus musculus; experiment: Reduction of paranephric fat in ddY mouse at 12.5 mg/kg/day, po after 14 to 15 days; format: functional
[57] = system: Mus musculus; experiment: Effect on food intake in ddY mouse at 25 mg/kg/day, po after 14 to 15 days; format: functional
[58] = system: Mus musculus; experiment: Reduction of mesenteric fat in ddY mouse at 0.1 mg/kg/day, po after 14 to 15 days; format: functional

O=c1c(O[C@@H]2O[C@H](CO)[C@@H](O)[C@H](O)[C@H]2O)c(-c2ccc(O)cc2)oc2cc(O)cc(O)c12 [ASTRAGALIN]
Activity [1]: 64.8 mg/g | Activity [2]: 113 mg/dL | Activity [3]: 1640 mg | Activity [4]: 1770 mg | Activity [5]: 680 mg | Activity [6]: 1.7 mEq/L | Activity [7]: 797 mg | Activity [8]: 4.34 g/day | Activity [9]: 99 mg/dL | Activity [10]: 119 mg/dL | Activity [11]: 293 mg

O=C(O)/C=C/c1ccc(O)cc1 [COUMARIC ACID]
Activity [1]: 58.2 mg/g | Activity [2]: 162 mg/dL | Activity [3]: 1640 mg | Activity [4]: 1920 mg | Activity [5]: 761 mg | Activity [6]: 1.67 mEq/L | Activity [7]: 847 mg | Activity [8]: 4.3 g/day | Activity [9]: 106 mg/dL | Activity [10]: 143 mg/dL | Activity [11]: 307 mg

O=c1c(O)c(-c2ccc(O)cc2)oc2cc(O)cc(O)c12 [KAEMPFEROL]
Activity [1]: 60.3 mg/g | Activity [2]: 139 mg/dL | Activity [3]: 1520 mg | Activity [4]: 2120 mg | Activity [5]: 804 mg | Activity [6]: 1.72 mEq/L | Activity [7]: 896 mg | Activity [8]: 4.2 g/day | Activity [9]: 110 mg/dL | Activity [10]: 149 mg/dL | Activity [11]: 418 mg

O=C(/C=C/c1ccc(O)cc1)OC[C@H]1O[C@@H](Oc2c(-c3ccc(O)cc3)oc3cc(O)cc(O)c3c2=O)[C@H](O)[C@@H](O)[C@@H]1O [TILIROSIDE]
Activity [12]: 738 mg and 508 mg | Activity [13]: 1140 mg | Activity [14]: 141 mg | Activity [15]: 1390 mg | Activity [16]: 1590 mg | Activity [17]: 46.7 mg/g | Activity [18]: 918 mg and 558 mg | Activity [19]: 102 mg/dL | Activity [20]: 394 mg and 194 mg | Activity [21]: 284 mg | Activity [22]: 2050 mg and 1260 mg | Activity [3]: 1500 mg | Activity [4]: 998 mg and 1450 mg | Activity [23]: 1.17 mEq/L | Activity [24]: 4.7 g/day | Activity [25]: 2240 mg | Activity [26]: 5 g/day | Activity [27]: 330 mg | Activity [28]: 407 mg | Activity [29]: 5 g/day | Activity [30]: 60.4 mg/g | Activity [5]: 516 mg and 561 mg | Activity [31]: 716 mg | Activity [32]: 1590 mg and 1680 mg | Activity [33]: 1.5 mEq/L | Activity [34]: 161 mg/dL | Activity [35]: 95 mg/dL | Activity [36]: 1.01 mEq/L | Activity [37]: 811 mg | Activity [38]: 30.8 mg/g | Activity [39]: 1060 mg | Activity [40]: 119 mg/dL | Activity [41]: 1950 mg | Activity [42]: 108 mg/dL | Activity [43]: 1.44 mEq/L | Activity [44]: 509 mg | Activity [45]: 144 mg/dL | Activity [7]: 350 mg and 626 mg | Activity [8]: 5.3 g/day and 4.22 g/day | Activity [46]: 812 mg | Activity [47]: 1660 mg | Activity [48]: 169 mg/dL | Activity [9]: 93 mg/dL | Activity [49]: 1560 mg | Activity [50]: 745 mg | Activity [51]: 156 mg/dL | Activity [52]: Active | Activity [53]: 1490 mg | Activity [54]: 5.7 g/day | Activity [11]: 132 mg and 266 mg | Activity [55]: 63.9 mg/g | Activity [56]: 350 mg | Activity [57]: 5 g/day and 5.4 g/day | Activity [58]: 662 mg
